# Measurements as given in ChEMBL document CHEMBL4321815, “Discovery of an Extremely Potent Thiazine-Based β-Secretase Inhibitor with Reduced Cardiovascular and Liver Toxicity at a Low Projected Human Dose” (J Med Chem, 2019).
# Legend:
# [1] = Clearance in dog at 0.5 mg/kg, iv; format: ADME, organism-based, Canis lupus familiaris; conditions: in vivo
# [2] = Volume of distribution at steady state in Sprague-Dawley rat at 0.5 mg/kg, iv by LC/MS/MS analysis; format: ADME, organism-based; conditions: in vivo, read-out: Vdss
# [3] = Fraction unbound in rat plasma after 24 hrs by equilibrium dialysis based LC-MS/MS analysis; format: ADME, cell-free
# [4] = Metabolic stability in rat hepatocytes at 2 uM incubated for 2 hr; format: ADME, cell-based, Hepatocyte; conditions: read-out: Stability
# [5] = Free drug level in Crl:CD1(ICR) mouse brain at 3 mg/kg, po at 6 hrs; format: ADME, organism-based; conditions: in vivo
# Canis familiaris [6] = experiment: In vivo inhibition of BACE1 in po dosed Beagle dog assessed as plasma level causing 80% reduction in amyloidbeta42 level in CSF administered as single dose measured after 4 to 49 hrs; format: functional, Canis lupus familiaris
# Mus musculus [7] = experiment: In vivo inhibition of BACE1 in Crl:CD1(ICR) mouse assessed as reduction in amyloidbeta level in brain at 1 mg/kg, po after 2 to 6 hrs by ELISA relative to control; format: functional
# [8] = Oral bioavailability in Cynomolgus monkey at 2.5 mg/kg by LC/MS/MS analysis; format: ADME, organism-based, Macaca fascicularis; conditions: in vivo
# Canis familiaris [9] = experiment: In vivo inhibition of BACE1 in po dosed Beagle dog assessed as reduction in amyloidbeta42 level in CSF measured after 4 to 49 hrs; format: functional, organism-based; conditions: Canis lupus familiaris
# [10] = Cmax in Sprague-Dawley rat at 2.5 mg/kg, po by LC/MS/MS analysis; format: ADME, organism-based; design: dose 2.5 mg/kg, route oral; conditions: in vivo
# [11] = Fraction unbound in monkey plasma after 24 hrs by equilibrium dialysis based LC-MS/MS analysis; format: ADME, cell-free, Macaca mulatta; conditions: rhesus monkey
# [12] = Clearance in mouse at 0.5 mg/kg, iv; format: ADME, organism-based; conditions: in vivo
# [13] = Tmax in mouse at 2.5 mg/kg, po; format: ADME, organism-based; conditions: in vivo
# [14] = Toxicity in anesthetized dog assessed as induction of adverse effect at 0.08 to 2.5 mg/kg, iv administered for 5 mins measured after 5 to 30 mins; format: organism-based, Canis lupus familiaris; conditions: in vivo
# [15] = Metabolic stability in mouse hepatocytes at 2 uM incubated for 2 hr; format: ADME, cell-based, Hepatocyte; conditions: read-out: Stability
# [16] = Metabolic stability in dog hepatocytes at 2 uM incubated for 2 hr; format: ADME, cell-based, Canis lupus familiaris, Hepatocyte; conditions: read-out: Stability
# [17] = Cmax in Sprague-Dawley rat at 1 mg/kg, po by LC/MS/MS analysis; format: ADME, organism-based; design: dose 1 mg/kg, route oral; conditions: in vivo
# [18] = AUC in mouse at 2.5 mg/kg, po; format: ADME, organism-based; conditions: in vivo
# [19] = Tmax in Cynomolgus monkey at 2.5 mg/kg, po by LC/MS/MS analysis; format: ADME, organism-based, Macaca fascicularis; conditions: in vivo
# [20] = Toxicity in anesthetized guinea-pig at 0.19 to 6 mg/kg, iv administered for 5 mins; format: organism-based, Cavia porcellus; conditions: in vivo
# [21] = Oral bioavailability in Sprague-Dawley rat at 2.5 mg/kg by LC/MS/MS analysis; format: ADME, organism-based; conditions: in vivo
# [22] = Free drug level in Crl:CD1(ICR) mouse brain at 1 mg/kg, po after 2 to 6 hrs; format: ADME, organism-based; conditions: in vivo
# [23] = Tmax in dog at 2.5 mg/kg, po; format: ADME, organism-based, Canis lupus familiaris; conditions: in vivo
# [24] = Drug level in Crl:CD1(ICR) mouse brain at 1 mg/kg, po after 2 to 6 hrs; format: ADME, organism-based; conditions: in vivo, read-out: Drug uptake
# Canis familiaris [25] = experiment: In vivo inhibition of BACE1 in po dosed Beagle dog assessed as plasma level causing 50% reduction in amyloidbeta42 level in CSF administered as single dose measured after 4 to 49 hrs; format: functional, organism-based; conditions: Canis lupus familiaris
# [26] = Cmax in dog at 2.5 mg/kg, po; format: ADME, organism-based, Canis lupus familiaris; design: dose 2.5 mg/kg, route oral; conditions: in vivo
# [27] = Oral bioavailability in Sprague-Dawley rat at 1 mg/kg by LC/MS/MS analysis; format: ADME, organism-based; conditions: in vivo
# Beta-secretase 2 = target: T1, Beta-secretase 2 (Homo sapiens, UniProt Q9Y5Z0); experiment: Inhibition of BACE2 (unknown origin) by HTRF assay
# T1 sequence (Q9Y5Z0 whole entry): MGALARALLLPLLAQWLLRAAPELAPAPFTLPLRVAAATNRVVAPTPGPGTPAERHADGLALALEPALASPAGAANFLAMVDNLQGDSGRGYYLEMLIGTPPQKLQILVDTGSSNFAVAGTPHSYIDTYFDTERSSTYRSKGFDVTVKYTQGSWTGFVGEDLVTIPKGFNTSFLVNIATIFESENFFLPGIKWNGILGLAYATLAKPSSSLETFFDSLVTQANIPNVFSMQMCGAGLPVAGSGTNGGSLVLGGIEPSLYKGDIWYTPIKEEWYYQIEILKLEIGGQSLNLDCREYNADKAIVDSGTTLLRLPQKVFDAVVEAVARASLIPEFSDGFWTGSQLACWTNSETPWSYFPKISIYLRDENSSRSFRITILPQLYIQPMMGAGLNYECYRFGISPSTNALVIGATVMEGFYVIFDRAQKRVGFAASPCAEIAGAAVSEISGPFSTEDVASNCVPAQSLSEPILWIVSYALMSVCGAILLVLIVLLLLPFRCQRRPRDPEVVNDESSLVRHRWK
# Cathepsin D = Cathepsin D (Homo sapiens, UniProt P07339); experiment: Inhibition of Cathepsin D (unknown origin)
# Chain of Cathepsin D (P07339 65-162 limits assumed): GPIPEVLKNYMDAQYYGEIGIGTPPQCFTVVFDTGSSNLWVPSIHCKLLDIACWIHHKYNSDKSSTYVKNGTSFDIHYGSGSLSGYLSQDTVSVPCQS
# Chain of Cathepsin D (P07339 169-412 limits assumed): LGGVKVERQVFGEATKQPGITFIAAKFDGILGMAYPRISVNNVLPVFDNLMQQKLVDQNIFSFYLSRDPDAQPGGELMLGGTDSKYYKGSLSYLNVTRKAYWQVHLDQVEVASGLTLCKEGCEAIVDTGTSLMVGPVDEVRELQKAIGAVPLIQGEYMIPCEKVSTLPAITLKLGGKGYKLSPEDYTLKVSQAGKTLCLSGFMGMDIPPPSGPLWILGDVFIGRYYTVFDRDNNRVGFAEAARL
# [28] = Toxicity in po dosed Beagle dog assessed as induction of adverse effect administered for 2 weeks; format: organism-based, Canis lupus familiaris; conditions: in vivo
# Mus musculus [29] = experiment: In vivo inhibition of BACE1 in po dosed Crl:CD1(ICR) mouse assessed as reduction in amyloidbeta level in brain after 2 to 6 hrs by ELISA; format: functional, organism-based
compound,measurement,setting,value
C[C@H]1SC(N)=N[C@](C)(c2cc(NC(=O)c3cnc(OCF)cn3)ccc2F)[C@H]1F,clearance,[1],2.6 mL/min/kg
same,Vd,[2],5 L/kg
same,fraction unbound at 24 h,[3],0.12
same,"remaining at 2 h, 2 µM",[4],74%
same,Drug uptake(free),[5],73 nM
same,EC80,Canis familiaris [6],100 nM
same,inhibition in vivo at 1 mg/kg,Mus musculus [7],55%
same,bioavailability,[8],24%
same,inhibition,Canis familiaris [9],Dose-dependent effect
same,Cmax,[10],148 ng/mL
same,fraction unbound at 24 h,[11],0.12
same,clearance,[12],41 mL/min/kg
same,Tmax,[13],0.3 h
same,NOAEL,[14],> 6.9 µg/mL
same,fNOAEL,[14],1.3 µM
same,"remaining at 2 h, 2 µM",[15],71%
same,"remaining at 2 h, 2 µM",[16],90%
same,Cmax,[17],38.4 ng/mL
same,AUC,[18],596 ng·h/mL
same,Tmax,[19],3 h
same,NOAEL,[20],> 6.9 µg/mL
same,fNOAEL,[20],2.4 µM
same,bioavailability,[21],38%
same,Drug uptake(free),[22],3 nM
same,Tmax,[23],1.8 h
same,concentration,[24],87 nM
same,EC50,Canis familiaris [25],21 nM
same,Cmax,[26],685 ng/mL
same,bioavailability,[27],31%
same,IC50,Beta-secretase 2,7.1 nM
same,IC50,Cathepsin D,≥ 100000 nM
same,NOAEL at 336 h,[28],6 mg/kg/day
same,inhibition,Mus musculus [29],Dose-dependent effect
